The results in this text go back to patent US20240158438A1, “POLYPEPTIDE COMPOUND AND APPLICATION THEREOF” (CHENGDU SINTANOVO BIOTECHNOLOGY CO., LTD., priority 2021, published 2024).

This assay deals with GHSR-1a (Homo sapiens (Human), UniProt Q92847). Briefly: Agonistic activity for GHSR-1a, FLIPR calcium assay. The class given is cell-based. As to conditions: agonist activity assay, Flp In-CHO-GHSR Stable Pool cells, FLIPR calcium 6 kit; read-out: The activity (IC50) of polypeptide compounds for GHSR-1a. The source says:
The use of recombinant expression of GHSR provides several advantages; for example, the receptor can be expressed in a determined cell system, so that it is easier to distinguish between the reactions of the compounds with GHSR and the reactions with other receptors. For example, cell lines such as HEK293, COS7 and CHO that […] can be used to express GHSR, and the same cell lines without expression vectors are used as controls.
The activity of GHSR-1a can be measured using different techniques, for example, by detecting the change in the intracellular conformation of GHSR, the change in G-protein coupling activity, and/or the change in intracellular messengers. Techniques such as measuring intracellular Ca^2+ are preferably used to measure the activity of GHSR-1a. Examples of techniques known in the art that can be used to measure Ca^2+ include the use of FLIPR® calcium ion assay kits, among others. The FLIPR® calcium ion assay kits use a calcium ion sensitive indicator and a masking dye to ensure that a researcher carries out high-sensitivity fluorescent screening for G protein-coupled receptors, ion channels and other calcium ion sensitive targets. This experiment used FLIPR calcium 6 assay kits and FLIPR calcium 6-QF assay kits.
• a) Cell line: Flp In-CHO-GHSR Stable Pool; • b) Complete medium: F12K+10% fetal bovine serum+1×penicillin-streptomycin (PS)+600 μg/mL hygromycin B; • c) Cell seeding medium: F12K+10% fetal bovine serum. • d) Assay buffer: 1× HBSS+20 mM HEPES. • e) […] component A: Assay buffer and component A were left at room temperature (RT), 10 mL of buffer was added to component A, and the mixture was vortexed for 1-2 min and stored at −20° C.
• a) Compound stock solutions: the powders from in-house synthesis were made into 10 mM stock solutions in DMSO according to the standard protocol. • b) Compound storage: all compounds in DMSO were stored in room temperature desiccators for short-term storage (at most 4 months). The remaining compounds were left at −20 ° C. for long-term storage.
• a) Flp In-CHO-GHSR Stable Pool cells were cultured in complete medium. • b) The cells were placed in […] cell seeding medium in a 384-well cell culture plate (Corning, 3764) at 7k cells/well and cultured overnight at 37° C. with 5% CO2. • c) 20× component A was thawed at room temperature, diluted with assay buffer to 2×, and left at RT. • d) The Petri dish was taken out of the incubator and equilibrated at room temperature for 10 min. The medium was changed to […]. After the final wash, 20 μL of buffer was kept in each well, 20 μL of 2× component A was then added to each well, and the plate was incubated at 37° C. for 3-5 s. • e) 10 μL of 5× compound was added to the 384-well cell culture plate, and data collection was immediately performed using FLIPR Tetra.
• 1) Z′ factor=1−3×(SDMax+SDMin)/(MeanMax−MeanMin); • 2) CVMax=(SDMax/MeanMax)×100%; • 3) CVMin=(SDMin/MeanMin)×100%; • 4) S/B=Singal/Background; • 5) Calculation formula for IC50: • Y=Bottom+(Top−Bottom)/(1+10^((LogIC50−X)×HillSlope)) • X: log value of compound concentration; Y: Activation % or Inhibition %

Starred links: 1 amine or outer side, 2 acyl side, 3 side chain; linkers in the order of their positions; H or OH if unused. Non-standard residues stand in square brackets, D forms with d. Residues, ends and D or L forms follow the SMILES beside them. *: point of attachment. Azetidine3carboxylic = O=C(C1CN([*:1])C1)[*:2]; Pyrrolidine3carbonyl(3S) = O=C([C@H]1CCNC1)*; X6 = O=C(C1[C@H]2CC[C@H](C2)N1[*:1])[*:2]; X5 = NC12CC3CC(C1)CC(CC(=O)*)(C3)C2; dBta = N[C@H](Cc1csc2ccccc12)C(=O)O; X7 = O=C([C@@]12CNC[C@@H]1C2)*; Ac4c(3-oxa) = NC1(C(=O)O)COC1; X1 = N[C@H]1CCC[C@H]1C(=O)*; dNle = CCCC[C@@H](N)C(=O)O; Nle = CCCC[C@H](N)C(=O)O; dAbu = CC[C@@H](N)C(=O)O; Api = NC1(C(=O)O)CCNCC1; X4 = O=C([C@H]1CNCCO1)*; dAze = O=C(O)[C@H]1CCN1; X3 = NCC1(C(=O)*)CCC1

Chain of GHSR-1a (Q92847 whole entry): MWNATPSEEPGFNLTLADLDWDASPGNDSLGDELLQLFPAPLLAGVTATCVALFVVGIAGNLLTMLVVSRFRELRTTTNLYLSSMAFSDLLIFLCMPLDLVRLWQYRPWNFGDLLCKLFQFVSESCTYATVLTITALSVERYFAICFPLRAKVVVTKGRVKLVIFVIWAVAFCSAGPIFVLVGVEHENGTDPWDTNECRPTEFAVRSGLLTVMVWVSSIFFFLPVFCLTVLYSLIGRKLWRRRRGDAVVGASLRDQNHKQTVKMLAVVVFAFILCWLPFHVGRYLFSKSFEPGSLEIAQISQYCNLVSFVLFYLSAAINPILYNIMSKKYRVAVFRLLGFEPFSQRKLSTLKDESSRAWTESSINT

Consider `CCCC[C@H](N)C(=O)N[C@H](Cc1csc2ccccc12)C(=O)N[C@H](Cc1c[nH]c2ccccc12)C(=O)N[C@@H](Cc1ccccc1)C(=O)N[C@H](CCCCN)C(N)=O` [Compound 50] (H-[Nle][dBta][dW]F[dK]-NH2), for which the IC50 (in general, the concentration needed to halve the response being measured) is 67.2 nM.

With `NCCCC[C@@H](NC(=O)[C@H](Cc1ccccc1)NC(=O)[C@@H](Cc1c[nH]c2ccccc12)NC(=O)[C@@H](Cc1csc2ccccc12)NC(=O)[C@H]1CCN1)C(N)=O` [Compound 55] (H-[dAze][dBta][dW]F[dK]-NH2), the IC50 turned out to be 20 nM.

In the case of `NCCCC[C@@H](NC(=O)[C@H](Cc1ccccc1)NC(=O)[C@@H](Cc1c[nH]c2ccccc12)NC(=O)[C@@H](Cc1csc2ccccc12)NC(=O)[C@H]1CNCCO1)C(N)=O` [Compound 57] (X4-[dBta][dW]F[dK]-NH2), the IC50 stood at 13.4 nM.

As for `NCCCC[C@@H](NC(=O)[C@H](Cc1ccccc1)NC(=O)[C@@H](Cc1c[nH]c2ccccc12)NC(=O)[C@@H](Cc1csc2ccccc12)NC(=O)CC12CC3CC(CC(N)(C3)C1)C2)C(N)=O` [Compound 58] (X5-[dBta][dW]F[dK]-NH2), the IC50 turned out to be 104 nM.

Regarding `NCCCC[C@@H](NC(=O)[C@H](Cc1ccccc1)NC(=O)[C@@H](Cc1c[nH]c2ccccc12)NC(=O)[C@@H](Cc1csc2ccccc12)NC(=O)C1N[C@@H]2CC[C@H]1C2)C(N)=O` (stereo partly shown) [Compound 59] (H-[X6][dBta][dW]F[dK]-NH2), the IC50 worked out at 16.8 nM.

As to `NCCCC[C@@H](NC(=O)[C@H](Cc1ccccc1)NC(=O)[C@@H](Cc1c[nH]c2ccccc12)NC(=O)[C@@H](Cc1csc2ccccc12)NC(=O)[C@@]12CNC[C@@H]1C2)C(N)=O` [Compound 60] (X7-[dBta][dW]F[dK]-NH2), the half-inhibitory concentration (IC50) came to 22.4 nM.

Consider `N=C(N)NCCC[C@@H](NC(=O)[C@H](Cc1ccccc1)NC(=O)[C@@H](Cc1c[nH]c2ccccc12)NC(=O)[C@@H](Cc1csc2ccccc12)NC(=O)[C@@H]1CCC[C@@H]1N)C(N)=O` [Compound 61] (X1-[dBta][dW]F[dR]-NH2), for which the IC50 was found to be 20.5 nM.

With `N=C(N)NCCC[C@@H](NC(=O)[C@H](Cc1ccccc1)NC(=O)[C@@H](Cc1c[nH]c2ccccc12)NC(=O)[C@@H](Cc1csc2ccccc12)NC(=O)C1(CN)CCC1)C(N)=O` [Compound 62] (X3-[dBta][dW]F[dR]-NH2), the half-maximal inhibitory concentration (IC50) stood at 30.3 nM.

For `N=C(N)NCCC[C@@H](NC(=O)[C@H](Cc1ccccc1)NC(=O)[C@@H](Cc1c[nH]c2ccccc12)NC(=O)[C@@H](Cc1csc2ccccc12)NC(=O)C1CNC1)C(N)=O` [Compound 63] (Azetidine3carboxylic-[dBta][dW]F[dR]-NH2), the IC50 is 27 nM.

In the case of `N=C(N)NCCC[C@@H](NC(=O)[C@H](Cc1ccccc1)NC(=O)[C@@H](Cc1c[nH]c2ccccc12)NC(=O)[C@@H](Cc1csc2ccccc12)NC(=O)C1(N)COC1)C(N)=O` [Compound 64] (H-[Ac4c(3-oxa)][dBta][dW]F[dR]-NH2), the half-maximal inhibitory concentration (IC50) is 38.1 nM.

For `N=C(N)NCCC[C@@H](NC(=O)[C@H](Cc1ccccc1)NC(=O)[C@@H](Cc1c[nH]c2ccccc12)NC(=O)[C@@H](Cc1csc2ccccc12)NC(=O)[C@H]1CCN1)C(N)=O` [Compound 65] (H-[dAze][dBta][dW]F[dR]-NH2), the IC50 turned out to be 34.3 nM.

As for `N=C(N)NCCC[C@@H](NC(=O)[C@H](Cc1ccccc1)NC(=O)[C@@H](Cc1c[nH]c2ccccc12)NC(=O)[C@@H](Cc1csc2ccccc12)NC(=O)[C@H]1CCNC1)C(N)=O` [Compound 66] ({Pyrrolidine3carbonyl(3S)}-[dBta][dW]F[dR]-NH2), the IC50 stood at 12 nM.

In the case of `N=C(N)NCCC[C@@H](NC(=O)[C@H](Cc1ccccc1)NC(=O)[C@@H](Cc1c[nH]c2ccccc12)NC(=O)[C@@H](Cc1csc2ccccc12)NC(=O)[C@H]1CNCCO1)C(N)=O` [Compound 67] (X4-[dBta][dW]F[dR]-NH2), the IC50 came to 23.3 nM.

Consider `N=C(N)NCCC[C@@H](NC(=O)[C@H](Cc1ccccc1)NC(=O)[C@@H](Cc1c[nH]c2ccccc12)NC(=O)[C@@H](Cc1csc2ccccc12)NC(=O)CC12CC3CC(CC(N)(C3)C1)C2)C(N)=O` [Compound 68] (X5-[dBta][dW]F[dR]-NH2), for which the 50% inhibitory concentration (IC50) is 330 nM.

For the compound `N=C(N)NCCC[C@@H](NC(=O)[C@H](Cc1ccccc1)NC(=O)[C@@H](Cc1c[nH]c2ccccc12)NC(=O)[C@@H](Cc1csc2ccccc12)NC(=O)C1N[C@@H]2CC[C@H]1C2)C(N)=O` (stereo partly shown) [Compound 69] (H-[X6][dBta][dW]F[dR]-NH2), the half-inhibitory concentration (IC50) stood at 40.2 nM.

For the compound `N=C(N)NCCC[C@@H](NC(=O)[C@H](Cc1ccccc1)NC(=O)[C@@H](Cc1c[nH]c2ccccc12)NC(=O)[C@@H](Cc1csc2ccccc12)NC(=O)[C@@]12CNC[C@@H]1C2)C(N)=O` [Compound 70] (X7-[dBta][dW]F[dR]-NH2), the IC50 was 39.7 nM.

With `NC(=O)[C@H](Cc1ccccc1)NC(=O)[C@@H](Cc1c[nH]c2ccccc12)NC(=O)[C@@H](Cc1csc2ccccc12)NC(=O)C1CNC1` [Compound 73], the IC50 was 15.9 nM.

For `NC(=O)[C@H](Cc1ccccc1)NC(=O)[C@@H](Cc1c[nH]c2ccccc12)NC(=O)[C@@H](Cc1csc2ccccc12)NC(=O)C1(N)COC1` [Compound 74] (H-[Ac4c(3-oxa)][dBta][dW]F-NH2), the IC50 is 17.3 nM.

For the compound `NC(=O)[C@H](Cc1ccccc1)NC(=O)[C@@H](Cc1c[nH]c2ccccc12)NC(=O)[C@@H](Cc1csc2ccccc12)NC(=O)[C@H]1CCN1` [Compound 75] (H-[dAze][dBta][dW]F-NH2), the IC50 was determined as 12.4 nM.

Take `NC(=O)[C@H](Cc1ccccc1)NC(=O)[C@@H](Cc1c[nH]c2ccccc12)NC(=O)[C@@H](Cc1csc2ccccc12)NC(=O)CC12CC3CC(CC(N)(C3)C1)C2` [Compound 78]: the IC50 stood at 78.4 nM.

As to `NC(=O)[C@H](Cc1ccccc1)NC(=O)[C@@H](Cc1c[nH]c2ccccc12)NC(=O)[C@@H](Cc1csc2ccccc12)NC(=O)C1N[C@@H]2CC[C@H]1C2` (stereo partly shown) [Compound 79], the IC50 came out at 33.1 nM.

`CCCC[C@@H](NC(=O)[C@@H](CCCCN)NC(=O)[C@H](Cc1ccccc1)NC(=O)[C@@H](Cc1c[nH]c2ccccc12)NC(=O)[C@@H](Cc1csc2ccccc12)NC(=O)[C@H](N)CC)C(N)=O` [Compound 81] (H-[dAbu][dBta][dW]F[dK][dNle]-NH2): the IC50 came to 7.2 nM.

With `CCCC[C@@H](NC(=O)[C@@H](CCCCN)NC(=O)[C@H](Cc1ccccc1)NC(=O)[C@@H](Cc1c[nH]c2ccccc12)NC(=O)[C@@H](Cc1csc2ccccc12)NC(=O)[C@H](N)CC)C(=O)N[C@H](C)C(N)=O` [Compound 82] (H-[dAbu][dBta][dW]F[dK][dNle][dA]-NH2), the IC50 was 9 nM.

Regarding `CCCC[C@@H](NC(=O)C1(NC(=O)[C@H](Cc2ccccc2)NC(=O)[C@@H](Cc2c[nH]c3ccccc23)NC(=O)[C@@H](Cc2csc3ccccc23)NC(=O)[C@H](N)CC)CCNCC1)C(N)=O` [Compound 83] (H-[dAbu][dBta][dW]F[Api][dNle]-NH2), the IC50 worked out at 12.2 nM.

With `CCCC[C@@H](NC(=O)C1(NC(=O)[C@H](Cc2ccccc2)NC(=O)[C@@H](Cc2c[nH]c3ccccc23)NC(=O)[C@@H](Cc2csc3ccccc23)NC(=O)[C@H](N)CC)CCNCC1)C(=O)N[C@H](C)C(N)=O` [Compound 84] (H-[dAbu][dBta][dW]F[Api][dNle][dA]-NH2), the IC50 amounted to 6.7 nM.
